Entries after “also recorded” stand apart in the source; their conditions may differ. Where two headings read alike, the source gives them in different places. No end group written: not given here.
Columns and labels:
[1] = tested on: subcutaneous H1993 NSCLC tumor; experiment: NIR imaging of dye-labeled peptides in mice with subcutaneous H1993 tumor; format: in vivo; details: for tumor accumulation / tumor targeting: Alexa Fluor 750 conjugate, tail vein injection
Description: The peptides were conjugated to Alexa Fluor 750 dye and […] injected intravenously via the tail vein into mice bearing a subcutaneous H1993 NSCLC tumor on their right flank.
SRI_MGS5_V2 and parental SRI_MGS5_V1 were labeled with the near-infrared dye Alexa Fluor 750 for imaging. […] For example, SRI_MGS5_V2 has 3-fold lower signal in the lung compared to SRI_MGS5_V1. […] Importantly, the corresponding nonacetylated versions of each peptide were evaluated as well.

[2] = tested on: normal control human lung epithelial cell line (HBEC); details: cited from earlier work
cancer cells = details: cited from earlier work
[3] = Physicochemical properties of peptides (hydrophobicity, solubility, stability)
NSCLC lines = experiment: Flow cytometry binding to NSCLC lines; format: cell-based, human
Excerpt: (§1) The final optimized SRI_MGS5_V1 peptide, SRI_MGS5_V2, has the following characteristics.

[4] = tested on: normal control human lung epithelial cell line (HBEC); experiment: Binding to normal lung epithelial cells; format: cell-based
Excerpt: as §1

[5] = tested on: breast cancer lines (MCF-7, MDA-MB-231and 4T1); experiment: Binding to breast cancer lines; format: cell-based
Excerpt: as §1

4T1 cells = experiment: Quantitative flow cytometry binding and internalization in 4T1 cells; format: cell-based, mouse
[6] = tested on: pancreatic cancer line (Pan02); experiment: Flow cytometry binding and internalization in Pan02 cells; format: cell-based, mouse
Excerpt: as §1

[7] = tested on: glioma cell line (GL-261); experiment: Flow cytometry binding and internalization in GL261 cells; format: cell-based, mouse
Excerpt: as §1

[8] = tested on: panel of cancer cell lines; experiment: Binding in a panel of cancer cell lines; format: cell-based
[9] = tested on: three human NSCLC cell lines; experiment: Quantitative flow cytometry uptake assay, NSCLC cell lines; format: cell-based
Description: Uptake is represented as an average number of peptides per cell. Error bars are smaller than the symbol for some points.
(§2) A quantitative flow cytometry assay was performed that measures the average number of molecules of peptide internalized per cell. […] The number of molecules internalized ranges from 1×10^5 molecules/cell for H358 cells to 8×10^5 for H1993 cells, corresponding to intracellular concentrations of 100-800 nM. The rate of uptake at 6 hours is not saturated and it appears that peptide continues to enter the cell past this time (FIG. 5 and FIG. 6). This indicates either high receptor numbers which have not yet saturated or rapid recycling of the receptor that allows for continual delivery, reaching high intracellular concentrations of the peptide.

H358 cells = experiment: Quantitative flow cytometry uptake assay, H358; format: cell-based, human
Description: H358 cell line data has been not included in FIG. 6 for clarity due to differences in the Y axis.
as §2

H1993 cells [10] = experiment: Quantitative flow cytometry uptake assay, H1993; format: cell-based, human
Description: as §2

H1993 NSCLC cells = experiment: Confocal microscopy, co-localization of peptide with autophagic vesicles; format: cell-based, human; details: 100 nM
Description: FIGS. 7A-7C show an example of co-localization of SRI_MGS5_V2 peptides with autophagic vesicles (A) H1993 cells treated with 100 nM of SRI_MGS5_V1 peptide (panel A) and optimized SRI_MGS_V2 (panels B and C) conjugated with Alexa Fluor 647 (Red). Autophagosomes are stained with LC3B antibody (Green). The regions corresponding to co-localization of the peptide and autophagic vesicles are shown in yellow.
(§3) Therefore, accumulation in autophagosomes is a necessary component for success of this immunotherapy.

LLC1 cells [11] = experiment: Confocal microscopy, autophagic vesicles in LLC1 cells; format: cell-based, mouse
Excerpt: as §3

LLC1 tumors = details: 15 μg I.V., Alexa Fluor 750 conjugate, 72 hours
Description: The LLC1 tumors were grown until palpable (≈500 mm^3) at which point mice were treated I.V. with 15 μg of SRI_MGS5_V2 conjugated to Alexa Fluor 750. Images were taken daily for 72 hours, after which the animal was sacrificed, and its organs were assessed to determine localization of the targeting peptide.

H1993 cells [12] = experiment: Co-culture assay, liposome treated H1993 cells with HLA-A2 positive PBMCs, cytokine ELISA; format: cell-based, human
Description: TALL treated H1993 cells were co-cultured with HLA-A2 positive PBMCs and culture supernatants were analyzed for TNF-α secretion. Concentration of all liposomes used in this assay corresponded to ≈4.5 mg/ml of phosphatidyl choline. Free H250 peptide control is incubated at 5 μmol/L.
TALL treated H1993 cells were co-cultured with HLA-A2 positive PBMCs and culture supernatants were analyzed for IFNγ secretion. Concentration of all liposomes used in this assay corresponded to ≈4.5 mg/ml of phosphatidyl choline. Free H250 peptide control is incubated at 5 μmol/L.
(§4) The liposomes were loaded with the H250 antigenic peptide and SRI_MGS5_V2 or SRI_MGS5_V1 was conjugated to the external face of the liposome via maleimide chemistry. The liposomes were incubated with H1993 cells followed by co-culture with peripheral blood mononuclear cells (PBMCs) from an anonymous donor that is haplotype HLA A2+ and vaccinated against measles. […] More experiments testing different liposome variants and assessing TNF-α and INF-γ in co-culture were performed. […] The same experiments were completed using mouse LLC1 cells as the antigen presenting cells and lymph node lymphocytes (LNL) from C57B1/6 mice that had been vaccinated against HA.

LLC1 cells [13] = experiment: Co-culture assay, liposome treated LLC1 cells, cytokine ELISA; format: cell-based, murine
Description: TALL treated LLC1 cells were co-cultured with HLA-A2 positive PBMCs and culture supernatants were analyzed for TNF-α a secretion. […] Concentration of all liposomes used in this assay corresponded to ≈4.5 mg/ml of phosphatidyl choline. Free H250 peptide control is incubated at 5 μmol/L.
TALL treated LLC1 cells were co-cultured with HLA-A2 positive PBMCs and culture supernatants were analyzed for IFN-γ secretion. […] Concentration of all liposomes used in this assay corresponded to ≈4.5 mg/ml of phosphatidyl choline. Free H250 peptide control is incubated at 5 μmol/L.
as §4

[14] = tested on: Multiple Different Cancer Types; experiment: Functional presentation of antigenic peptide in multiple cancer types; format: cell-based
Excerpt: Treatment groups: A—MGS5_V2 Targeted Liposome Loaded with H250 Antigen; B—Positive Control: Cells Pulsed with Free H250 Antigen; C—No MGS on Liposome Loaded with H250 Antigen; D—Blank Liposomes—no H250 Antigen.

H1993 cells [15] = tested on: H1993 cells
[16] = tested on: 4T1 cells implanted in mammary fat pads; details: nIR dye-labelled peptide
Pan02 cells = details: fluorescent dye-labelled peptide
[17] = tested on: GL261 cells implanted in the brain; details: fluorescent dye-labelled peptide
[18] = HLA A*02:01 patients; cited from earlier work

**Q.** Which results are given for “SRI_MGS5_V1: parental tumor-targeting peptide, dimer comprising LQWRRDDNVHNFGVWARYRL (SEQ ID NO:2) (also: dimer) [reference compound]”?
**A.** off-tumor signal in vivo ([1]; 24 H): significant signal along the dorsal side; tumor accumulation / tumor targeting [1]: accumulate specifically; extent of tumor uptake, V1 versus V2 ([1]; mouse, in vivo): roughly the same degree; time to localization at the tumor site ([1]; mouse, in vivo): ≤ 24 h; tumor signal maintained ([1]; mouse, in vivo): 72 h; binding to normal human bronchial epithelial cells [2]: limited binding; accumulation in cancer cells (cancer cells): selectively accumulate

**Q.** With SLSAYIIRV [H3L, SLSAYIIRV] as the substance, how does the biophysical properties [3] read?
**A.** Its biophysical properties is “hydrophobic, difficult to purify, and unstable”.

**Q.** Which “binding to NSCLC lines compared to parental SRI_MGS5_V1” value (NSCLC lines) does the source give for “(CH3CO-LQWRRNFGVWARYRL-PEG11)2K-X (not fully specified; N-acetyl, PEG11, dimerized on lysine core, tag X; targeting sequence) [SRI_MGS5_V2]” here?
**A.** The value was “greater binding affinity; also recorded: increased binding”.

**Q.** And the “discrimination between NSCLC cancer and normal cells in the lung” value [4]?
**A.** The value was “high discriminating power”.

**Q.** And the “binding to breast cancer lines” value [5]?
**A.** Its value is “shown to bind; also recorded: binds”.

**Q.** What about the “binding and internalization in 4T1 cells” value (4T1 cells) of the same substance?
**A.** The value was “concentration dependent binding and internalization”.

**Q.** What about the “binding (and internalization) in Pan02 cells” value [6] of the same substance?
**A.** Its value is “shown to bind; also recorded: binds”.

**Q.** And the “binding (and internalization) in Pan02 cells” value ([6]; listed as MGS5_V2)?
**A.** The value was “concentration dependent binding and internalization”.

**Q.** And the “binding (and internalization) in GL261 cells” value [7]?
**A.** The value was “shown to bind; also recorded: binds”.

**Q.** What about the “binding (and internalization) in GL261 cells” value ([7]; listed as MGS5_V2) of the same substance?
**A.** Its value is “concentration dependent binding and internalization”.

**Q.** What about the “binding in a panel of cancer cell lines” value [8] of the same substance?
**A.** The value was “improved binding”.

**Q.** And the “uptake at low temperature” value ([9]; 4° C.)?
**A.** The value was “greatly reduced”.

**Q.** What about the rate of uptake ([9]; at 6 hours, 100 nM dye-labeled peptide) of the same substance?
**A.** Its rate of uptake is “not saturated”.

**Q.** And the intracellular concentrations ([9]; corresponding to molecules/cell from H358 to H1993)?
**A.** The intracellular concentrations was 100 to 800 nM.

**Q.** And the internalization ([9]; three human NSCLC cell lines)?
**A.** Its internalization is “is internalized”.

**Q.** And the “number of molecules internalized” value (H358 cells)?
**A.** Its value is 1×10^5 molecules/cell.

**Q.** And the “number of molecules internalized” value (H1993 cells [10])?
**A.** Its value is 8×10^5 molecules/cell.

**Q.** And the “accumulation in autophagic vesicles compared to parental MGS5_V1” value (H1993 NSCLC cells)?
**A.** Its value is “much greater extent”.

**Q.** And the “accumulation in autophagic vesicles” value (LLC1 cells [11])?
**A.** Its value is “Comparable results”.

**Q.** What about the “tumor accumulation / tumor targeting” value [1] of the same substance?
**A.** Its value is “accumulate specifically”.

**Q.** What about the “non-specific accumulation in the lung and other organs vs acetylated SRI_MGS5_V1” value ([1]; ex vivo imaging at 72 H) of the same substance?
**A.** Its value is “reduced non-specific accumulation”.

**Q.** What about the “less signal in the kidneys compared to SRI_MGS5_V1” value ([1]; ex vivo, 72 H) of the same substance?
**A.** Its value is 2.2 fold.

**Q.** What about the “extent of tumor uptake, V1 versus V2” value ([1]; mouse, in vivo) of the same substance?
**A.** The value was “roughly the same degree”.

**Q.** What about the “less signal in the liver compared to SRI_MGS5_V1” value ([1]; mouse, in vivo) of the same substance?
**A.** The value was 1.6 fold.

**Q.** What about the “lower signal in the lung compared to SRI_MGS5_V1” value ([1]; mouse, in vivo) of the same substance?
**A.** The value was 3 fold.

**Q.** What about the “time to localization at the tumor site” value ([1]; mouse, in vivo) of the same substance?
**A.** Its value is at most 24 h.

**Q.** And the tumor signal maintained ([1]; mouse, in vivo)?
**A.** The tumor signal maintained was 72 h.

**Q.** And the “localization in LLC1 tumor” value (LLC1 tumors; listed as SRI_MGS2_V2)?
**A.** The value was “successfully localized”.

**Q.** And the “localization in LLC1 tumor” value (LLC1 tumors; listed as SRI_MGS5_V5)?
**A.** Its value is “homes to LLC1 tumors”.

**Q.** What about the “presentation of encapsulated immunogenic peptide in HLA class I molecules (IFNγ ELISA)” value (H1993 cells [12]) of the same substance?
**A.** The value was “facilitates presentation”.

**Q.** And the “presentation of encapsulated immunogenic peptide in HLA class I molecules (TNF-α ELISA)” value (H1993 cells [12])?
**A.** Its value is “facilitates presentation”.

**Q.** What about the “presentation of encapsulated immunogenic peptide in HLA class I molecules (IFN-γ ELISA)” value (LLC1 cells [13]) of the same substance?
**A.** The value was “facilitates presentation”.

**Q.** And the “presentation of encapsulated immunogenic peptide in HLA class I molecules (TNF-α ELISA)” value (LLC1 cells [13])?
**A.** The value was “facilitates presentation”.

**Q.** What about the “functional presentation of antigenic peptide” value [14] of the same substance?
**A.** The value was “Mediates Functional Presentation”.

**Q.** What about the cell viability (H1993 cells [15]; 72 hours, concentrations as high as 250 μM) of the same substance?
**A.** Its cell viability is “No significant loss of viability”.

**Q.** What about the toxicity of uptake (H1993 cells [15]; H1993 cells) of the same substance?
**A.** Its toxicity of uptake is “not toxic”.

**Q.** What about the “tumor localization, orthotopic 4T1” value [16] of the same substance?
**A.** The value was “homes to tumors”.

**Q.** And the “tumor localization, orthotopic 4T1” value ([16]; listed as MGS5_V2)?
**A.** Its value is “localized within the tumors”.

**Q.** And the “tumor localization, orthotopic Pan02” value (Pan02 cells)?
**A.** Its value is “homes to tumors”.

**Q.** What about the “tumor localization, orthotopic Pan02” value (Pan02 cells; listed as MGS5_V2) of the same substance?
**A.** Its value is “localized in the tumor”.

**Q.** And the “tumor localization, orthotopic GL261” value [17]?
**A.** The value was “homes to tumors”.

**Q.** And the “tumor localization, orthotopic GL261” value ([17]; listed as MGS5_V2)?
**A.** The value was “targets GL261 cells”.

**Q.** With SLWGSLLML [C166, SLWGSLLML] as the substance, how does the biophysical properties [3] read?
**A.** The biophysical properties was “hydrophobic, difficult to purify, and unstable”.

**Q.** With ILPGQDLQYV [H516] as the substance, how does the immunogenic response [18] read?
**A.** The immunogenic response was “highly immunogenic”.

**Q.** Which immunogenic response [18] does the source give for “SMYRVFEVGV [H250, measles virus hemagglutinin peptide, HLA class I (A*02:01) restricted]” here?
**A.** Its immunogenic response is “strong CD8 specific IFNγ response; also recorded: strong CD8 specific IFNy response”.

From patent publication US12636378B2, “Targeted antigen delivery system and uses thereof” (SRI International, priority 2020, dated 2026)
